{
  "source": "patent US20210315840A1",
  "about": "“SOLID ORAL DOSAGE FORMS OF KETAMINE DERIVATIVES” (priority 2017, published 2021)",
  "key": {"5-HT2A": {"molecular_target": "5-HT2A (Homo sapiens, UniProt P28223)", "sequence (P28223 whole entry)": "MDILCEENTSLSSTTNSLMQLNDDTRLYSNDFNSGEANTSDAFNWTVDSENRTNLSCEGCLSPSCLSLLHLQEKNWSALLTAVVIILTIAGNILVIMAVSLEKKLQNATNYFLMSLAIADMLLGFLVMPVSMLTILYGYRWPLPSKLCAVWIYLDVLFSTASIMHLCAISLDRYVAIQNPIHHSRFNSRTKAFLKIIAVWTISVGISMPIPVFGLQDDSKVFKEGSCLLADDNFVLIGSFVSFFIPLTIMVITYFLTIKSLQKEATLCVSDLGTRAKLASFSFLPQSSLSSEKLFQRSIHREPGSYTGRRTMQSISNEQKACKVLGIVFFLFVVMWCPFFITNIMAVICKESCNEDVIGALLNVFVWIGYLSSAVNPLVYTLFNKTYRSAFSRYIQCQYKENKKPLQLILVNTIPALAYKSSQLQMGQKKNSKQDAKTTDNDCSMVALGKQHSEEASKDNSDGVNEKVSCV", "test": "Binding assay 5-HT2A", "description": "(§1) 2R,6R-hydroxynorketamine was investigated for binding to monoamine oxidases A and B, monoamine transporters, as well as a variety of 5HT receptors."}, "[1]": {"test": "DSC compatibility with excipients and capsule shells"}, "dopamine transporter": {"molecular_target": "dopamine transporter (Homo sapiens, UniProt Q01959)", "sequence (Q01959 whole entry)": "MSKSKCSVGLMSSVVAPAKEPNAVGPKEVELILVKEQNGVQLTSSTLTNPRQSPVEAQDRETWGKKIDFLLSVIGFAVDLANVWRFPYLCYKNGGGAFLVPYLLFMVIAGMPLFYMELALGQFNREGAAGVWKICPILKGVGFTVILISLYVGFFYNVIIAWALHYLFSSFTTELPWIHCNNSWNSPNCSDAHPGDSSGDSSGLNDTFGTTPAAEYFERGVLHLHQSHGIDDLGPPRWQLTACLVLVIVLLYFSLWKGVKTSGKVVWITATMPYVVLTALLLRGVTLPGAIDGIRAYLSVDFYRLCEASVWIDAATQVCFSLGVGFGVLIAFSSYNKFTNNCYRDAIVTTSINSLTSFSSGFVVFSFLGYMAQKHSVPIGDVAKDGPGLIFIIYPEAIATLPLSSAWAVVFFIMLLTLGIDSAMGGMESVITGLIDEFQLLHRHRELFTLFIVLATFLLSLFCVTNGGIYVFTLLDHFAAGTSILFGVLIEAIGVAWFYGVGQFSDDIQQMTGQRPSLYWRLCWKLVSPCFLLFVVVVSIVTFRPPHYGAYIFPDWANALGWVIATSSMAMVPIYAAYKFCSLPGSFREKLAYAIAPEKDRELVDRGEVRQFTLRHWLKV", "test": "Binding assay dopamine transporter", "description": "as §1"}, "5-HT1B": {"molecular_target": "5-HT1B (Homo sapiens, UniProt P28222)", "sequence (P28222 whole entry, species assumed)": "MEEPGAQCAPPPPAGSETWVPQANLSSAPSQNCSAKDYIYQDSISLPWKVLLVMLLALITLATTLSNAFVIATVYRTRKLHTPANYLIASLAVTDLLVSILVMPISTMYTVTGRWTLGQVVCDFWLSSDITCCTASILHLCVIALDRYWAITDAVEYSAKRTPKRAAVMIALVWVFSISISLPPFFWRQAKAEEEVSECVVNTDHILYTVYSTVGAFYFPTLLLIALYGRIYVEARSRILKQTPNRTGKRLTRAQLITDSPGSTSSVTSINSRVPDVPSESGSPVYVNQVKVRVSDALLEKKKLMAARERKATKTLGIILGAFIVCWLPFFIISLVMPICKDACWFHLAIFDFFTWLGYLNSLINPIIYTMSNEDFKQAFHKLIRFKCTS", "test": "Binding assay 5-HT1B", "description": "as §1"}, "Metabolite profiling": {"test": "Metabolite profiling", "assay_type": "in vitro ADME"}},
  "note": "Where two headings read alike, the source gives them in different places.",
  "data": [
    {"smiles": "N[C@@]1(c2ccccc2Cl)CCC[C@@H](O)C1=O", "note": "[2R,6R-hydroxynorketamine, 2R,6R-2-(2-Chlorophenyl)-2-(amino)-6-hydroxycyclohexanone]", "values": [
      {"measurement": "substrate of p-gp or Breast Cancer Resistance Protein (BCRP) efflux transporters", "setting": "Caco-2; Caco-2", "result": "not a substrate"},
      {"measurement": "permeability (in words)", "setting": "Caco-2; Caco-2 permeability assay", "result": "high"},
      {"measurement": "Mean % Recovery", "setting": "Caco-2; Direction = A2B", "result": 98.9, "unit": "%"},
      {"measurement": "Mean Papp", "setting": "Caco-2; Direction = A2B", "result": "45.7 10^−6 cms^−1"},
      {"measurement": "Papp Replicate 1", "setting": "Caco-2; Direction = A2B", "result": "49.1 10^−6 cms^−1"},
      {"measurement": "Papp Replicate 2", "setting": "Caco-2; Direction = A2B", "result": "42.3 10^−6 cms^−1"},
      {"measurement": "Mean % Recovery", "setting": "Caco-2; Direction = B2A", "result": 103, "unit": "%"},
      {"measurement": "Mean Papp", "setting": "Caco-2; Direction = B2A", "result": "50.7 10^−6 cms^−1"},
      {"measurement": "Papp Replicate 1", "setting": "Caco-2; Direction = B2A", "result": "52.8 10^−6 cms^−1"},
      {"measurement": "Papp Replicate 2", "setting": "Caco-2; Direction = B2A", "result": "48.5 10^−6 cms^−1"},
      {"measurement": "% Inhibition of Control Specific Binding", "setting": "5-HT2A", "result": 0, "unit": "%"},
      {"measurement": "% of Control Specific Binding", "setting": "5-HT2A", "result": 103.8, "unit": "%"},
      {"measurement": "binding to 5HT2A receptor subtype (in words)", "setting": "5-HT2A", "result": "does not bind"},
      {"measurement": "compatibility with dicalcium phosphate and microcrystalline cellulose", "setting": "[1]", "result": "compatibility"},
      {"measurement": "compatibility with lactose monohydrate (DSC)", "setting": "[1]; binary mix 1:2 API:Excipient", "result": "incompatible"},
      {"measurement": "% Inhibition of Control Specific Binding", "setting": "dopamine transporter", "result": 11, "unit": "%"},
      {"measurement": "% of Control Specific Binding", "setting": "dopamine transporter", "result": 87.2, "unit": "%"},
      {"measurement": "% Inhibition of Control Specific Binding", "setting": "5-HT1B", "result": "−2", "unit": "%"},
      {"measurement": "% of Control Specific Binding", "setting": "5-HT1B", "result": 102.7, "unit": "%"},
      {"measurement": "binding to 5HT1B receptor subtype (in words)", "setting": "5-HT1B", "result": "does not bind"},
      {"measurement": "metabolic route (in words)", "setting": "Metabolite profiling", "result": "does not undergo phase I metabolism by CYP enzymes, but is glucuronidated"}
    ]}
  ]
}
